# Source: patent US6689754B1, “Heterocyclic glycyl β-alanine derivatives” (G. D. Searle & Co., priority 1998, dated 2004)
# Where a name gives a salt, the structure may show the parent alone.
# How the values were obtained:
# [1] = target: T1, Human vitronectin receptor (αvβ3) (Homo sapiens, UniProt P05106+P06756); experiment: Vitronectin adhesion assay: solid phase receptor assay, competition with biotinylated vitronectin; type: binding; details: purified human vitronectin receptor; 1 nM biotinylated vitronectin
# T1 construct: Human vitronectin receptor (αvβ3) was purified from human placenta; from tissue; host or cells: human placenta
# Experimental: Vitronectin Adhesion Assay
# Human vitronectin receptor (αvβ3) was purified from human placenta as previously described [Pytela et al., Methods in Enzymology, 144:475-489 (1987)]. Human vitronectin was purified from fresh frozen plasma as previously described [Yatohgo et al., Cell Structure and Function, 13:281-292 (1988)]. Biotinylated human vitronectin was prepared by coupling NHS-biotin from Pierce Chemical Company (Rockford, Ill.) to purified vitronectin as previously described [Charo et al., J. Biol. Chem., 266(3):1415-1421 (1991)]. Assay buffer, OPD substrate tablets, and RIA grade BSA were obtained from Sigma (St. Louis, Mo.). Anti-biotin antibody was obtained from Calbiochem (La Jolla, Calif.). Linbro microtiter plates were obtained from Flow Labs (McLean, Va.). ADP reagent was obtained from Sigma (St. Louis, Mo.).
# This assay was essentially the same as previously reported [Niiya et al., Blood, 70:475-483 (1987)]. The purified human vitronectin receptor (αvβ3) was diluted from stock solutions to 1.0 μg/mL in Tris-buffered saline containing 1.0 mM Ca^++, Mg^++, and Mn^++, pH 7.4 (TBS^+++). The diluted receptor was immediately transferred to Linbro microtiter plates at 100 μL/well (100 ng receptor/well). The plates were sealed and incubated overnight at 4° C. to allow the receptor to bind to the wells. All remaining steps were at room temperature. The assay plates were emptied and 200 μL of 1% RIA grade BSA in TBS^+++ (TBS^+++/BSA) were added to block exposed plastic surfaces. Following a 2 hour incubation, the assay plates were washed with TBS^+++ using a 96 well plate washer. Logarithmic serial dilution of the test compound and controls were made starting at a stock concentration of 2 mM and using 2 nM biotinylated vitronectin in TBS^+++/BSA as the diluent. This premixing of labeled ligand with test (or control) ligand, and subsequent transfer of 50 μL aliquots to the assay plate was carried out with a CETUS Propette robot; the final concentration of the labeled ligand was 1 nM and the highest concentration of test compound was 1.0×10^−4 M. The competition occurred for two hours after which all wells were washed with a plate washer as before. Affinity purified horseradish peroxidase labeled goat anti-biotin antibody was diluted 1:3000 in TBS^+++/BSA and 125 μL were added to each well. After 30 minutes, the plates were washed and incubated with OPD/H2O2 substrate in 100 mM/L Citrate buffer, pH 5.0. The plate was read with a microtiter plate reader at a wavelength of 450 nm and when the maximum-binding control wells reached an absorbance of about 1.0, the final A450 were recorded for analysis. The data were analyzed using a macro written for use with the EXCELJ spreadsheet program. The mean, standard deviation, and % CV were determined for duplicate concentrations. The mean A450 values were normalized to the mean of four maximum-binding controls (no competitor added)(B-MAX). The normalized values were subjected to a four parameter curve fit algorithm [Rodbard et al., Int.
# [2] = target: T2, Human fibrinogen receptor IIb/IIIa (Homo sapiens, UniProt P05106+P08514); experiment: Purified IIb/IIIa receptor assay: solid phase receptor assay, competition with biotinylated vitronectin; type: binding; details: 1 nM biotinylated vitronectin
# T2 construct: Human fibrinogen receptor ([…]) was purified from outdated platelets; from tissue; host or cells: outdated human platelets
# Source text: Purified IIb/IIIa Receptor Assay
# Human fibrinogen receptor ([…]) was purified from outdated platelets. (Pytela, R., Pierschbacher, M. D., Argraves, S., Suzuki, S., and Rouslahti, E. “Arginine-Glycine-Aspartic acid adhesion receptors”, Methods in Enzymology 144(1987):475-489.) Human vitronectin was purified from fresh frozen plasma as described in Yatohgo, T., Izumi, M., Kashiwagi, H., and Hayashi, M., “Novel purification of vitronectin from human plasma by heparin affinity chromatography,” Cell Structure and Function 13(1988):281-292. Biotinylated human vitronectin was prepared by coupling NHS-biotin from Pierce Chemical Company (Rockford, Ill.) to purified vitronectin as previously described. (Charo, I. F., Nannizzi, L., Phillips, D. R., Hsu, M. A., Scarborough, R. M., “Inhibition of fibrinogen binding to GP IIb/IIIa by a GP IIIa peptide”, J. Biol. Chem. 266(3)(1991): 1415-1421.) Assay buffer, OPD substrate tablets, and RIA grade BSA were obtained from Sigma (St. Louis, Mo.). Anti-biotin antibody was obtained from Calbiochem (La Jolla, Calif.). Linbro microtiter plates were obtained from Flow Labs (McLean, Vs.). ADP reagent was obtained from Sigma (St. Louis, Mo.).
# This assay is essentially the same reported in Niiya, K., Hodson, E., Bader, R., Byers-Ward, V. Koziol, J. A., Plow, E. F. and Ruggeri, Z. M., “Increased surface expression of the membrane glycoprotein IIb/IIIa complex induced by platelet activation: Relationships to the binding of fibrinogen and platelet aggregation”, Blood 70(1987):475-483. The purified human fibrinogen receptor ([…]) was diluted from stock solutions to 1.0 μg/mL in Tris-buffered saline containing 1.0 mM Ca^++, Mg^++, and Mn^++, pH 7.4 (TBS^+++). The diluted receptor was immediately transferred to Linbro microtiter plates at 100 μL/well (100 ng receptor/well). The plates were sealed and incubated overnight at 4° C. to allow the receptor to bind to the wells. All remaining Steps were at room temperature. The assay plates were emptied and 200 μL of 1% RIA grade BSA in TBS^+++ (TBS^+++/BSA) were added to block exposed plastic surfaces. Following a 2 hour incubation, the assay plates were washed with TBS^+++ using a 96 well plate washer. Logarithmic serial dilution of the test compound and controls were made starting at a stock concentration of 2 mM and using 2 nM biotinylated vitronectin in TBS^+++/BSA as the diluent. This premixing of labeled ligand with test (or control) ligand, and subsequent transfer of 50 μL aliquots to the assay plate was carried out with a CETUS Propette robot; the final concentration of the labeled ligand was 1 nM and the highest concentration of test compound was 1.0×10^−4 M. The competition occurred for two hours after which all wells were washed with a plate washer as before. Affinity purified horseradish peroxidase labeled goat anti-biotin antibody was diluted 1:3000 in TBS^+++/BSA and 125 μL were added to each well. After 30 minutes, the plates were washed and incubated with […] substrate in 100 mM/L citrate buffer, pH 5.0. The plate was read with a microtiter plate reader at a wavelength of 450 nm and when the maximum-binding control wells reached an absorbance of about 1.0, the final A450 were recorded for analysis. The data were analyzed using a macro written for use with the EXCELJ spreadsheet program. The mean, standard deviation, and % CV were determined for duplicate concentrations. The mean A450 values were normalized to the mean of four maximum-binding controls (no competitor added)(B-MAX). The normalized values were subjected to a four parameter curve fit algorithm, [Robard et al., Int. Atomic Energy Agency.
smiles,measurement,setting,value
"Cn1cc(C(=O)NCC(=O)NC(CC(=O)O)c2cc(Cl)cc(Cl)c2O)cc(NC2=NCCN2)c1=O (stereo not drawn) [Example 18, N-[[5-(4,5,-dihydro-1H-imidazol-2-yl)amino]-1,6-dihydro-1-methyl-6-oxo-3-pyridinyl]carbonyl]glycyl-3-(3,5-dichloro-2-hydroxyphenyl-β-alanine, (trifluoroacetate) salt]",IC50,[1],0.43 nM
same,IC50,[2],798 nM
